Source: patent US20230101743A1, “SUBSTITUTED TRIAZINE COMPOUNDS AND USES THEREOF” (MUSC FOUNDATION FOR RESEARCH DEVELOPMENT, priority 2020, published 2023)

Tests used:
[1] = tested on: hepatic markers (ALB, AFP, HNF4α, SLC10A1, ASGR1); experiment: Hepatic marker expression (real-time qPCR, immunofluorescence); assay type: cell-based, human; conditions: 2 μg/mL, 24 hours
Method: C. Human iPSC-derived hepatocytes were treated with 2 μg/mL of DL-1 for 24 hours. (A) mRNA level of hepatic markers (ALB, AFP, HNF4α, SLC10A1, ASGR1) were determined via real-time qPCR. (B) Cells were fixed and immunofluorescence was performed to determine HNF4 and ALB level. […] Data are shown as mean SEM of […] (n=4).
For hepatic marker expression analysis, human iPSC-derived hepatocytes (Day 20) were treated with 2 μg/mL of DL-1 for 24 hours. Cells were fixed in 4% paraformaldehyde (PFA) and penetrated with 0.1% Triton-X-100. Cells were incubated with primary antibodies (ALB, 1:1000, Dako; HNF4-a, 1:1000, Santa Cruz) overnight at 4 degrees and then switched to secondary antibodies (Alexa Flour 488 goat anti-rabbit, 1:1000, Invitrogen; Alexa Flour 594 rabbit anti-mouse, 1:2000, Invitrogen). Images were taken using Bio-Rad Zoe™ Fluorescent Cell Imager (Bio-Rad). For intracellular APOB localization, iPSC-heps were treated with 0, 3, 12, 48 μg/mL of DL-9 for 24 hours, and cells were fixed in 4% PFA followed by 0.1% Triton-X-100 penetration. […] Integrated fluorescent intensity was normalized by total cell counts, which is determined by DAPI staining.
Human iPSC-derived hepatocytes (Day 20) were treated with 2 μg/mL of DL-1 for 24 hours. […] Quantitative real-time PCR was performed on a BioRad CFX384 real-time PCR machine.

[2] = tested on: apolipoprotein B (APOB-100); experiment: Secreted APOB ELISA in human iPSC-derived hepatocyte-like cells; assay type: cell-based
Method: D. Human iPSC-derived hepatocytes were treated with DL-1 with concentrations ranging from 0.0325 to 12 or 48 μg/mL for 24 hours. Pre-drug and Post-drug medium were collected for analysis. Albumin and APOB levels were determined via ELISA assay. All secreted proteins were compared to non-treated cells. […] Data are shown as mean±SEM of four replicates (n=4); * p<0.01.
E. Human iPSC-derived hepatocytes were treated with 2 μg/mL of DL-1 from 8 to 48 hours. Albumin, APOPA, and APOB level in the culture medium were determined via ELISA. All secreted proteins were compared to non-treated cells. In FIG. 5, accumulated APOB in the medium from different time-point was measured and normalized to albumin level. […]
F. Twenty-one compounds that are structurally similar to DL-1 were tested with the concentration of 2 μg/mL in human iPSC-derived hepatocytes for 24 hours. Secreted APOB levels were determined and compared to the DMSO-treated group. […] Data is shown as mean±SEM of replicates (n=8) and as quantification value of each derivative. […]
Differentiated human hepatocyte-like cells were treated with representative compounds of the invention (2 μg/mL) or equivalent amount of DMSO (0.5%) as the placebo group for 24 hours. […] The secreted level of apolipoprotein B (APOB-100), the core protein of LDL-C, were determined via enzyme-linked immunosorbent assay (ELISA). […]

Sc1nc(S)nc(Nc2ccc(Nc3ccccc3)cc2)n1 (racemic) [DL-1, 6-{[4-(phenylamino)phenyl]amino}-1,3,5-triazine-2,4-dithiol]
hepatic character (hepatic marker mRNA, HNF4 and ALB immunofluorescence) [1]: no impact on hepatic characters
APOB level in culture medium, time course ([2]; 2 μg/mL, 8 to 48 hours): reduces APOB level in a time-dependent manner
APOB secretion level, dose-response ([2]; 0.0325 to 12 or 48 μg/mL, 24 hours): reduces APOB secretion level in a dose-response manner
